# Test results published in patent US9149038B2, “4-amino-6-(heterocyclic)picolinates and 6-amino-2-(heterocyclic)pyrimidine-4-carboxylates and their use as herbicides” (Dow AgroSciences LLC, priority 2013, dated 2015).
# Where two headings read alike, the source gives them in different places.
# Columns and labels:
# [1] = tested on: Key Broadleaf and Grass Weed as well as Crop Species; assay: Post-Emergent Test I: postemergent herbicidal activity, visual phytotoxicity rating 10 days after treatment (Table 5); assay type: in vivo; details: for Visual Growth Reduction (%) 10 Days After Application ECHCG: barnyardgrass (Echinochloa crus-galli); for pest or weed control at 4000 g/ha / pest or weed control at 3960 g/ha: post-emergence, 240 h, 10 days after application
# Method: Herbicidal evaluations were made visually on a scale of 0 to 100 where 0 represents no activity and 100 represents complete plant death. Post-Emergent Test I: Seeds of test species were obtained from commercial suppliers and planted into a 5″-round pot containing soil-less media mix (Metro-Mix 360®, Sun Gro Horticulture). Postemergence treatments were planted 8-12 days (d) prior to application and cultured in a greenhouse equipped with supplemental light sources to provide a 16 h photoperiod at 24-29° C. All pots were surface irrigated. Approximately 10 milligrams (mg) of each compound were dissolved in 1.3 mL acetone-DMSO (97:3, volume per volume (v/v)) and diluted with 4.1 mL water-isopropanol-crop oil concentrate (78:20:2, v/v/v) containing 0.02% Triton X-155. Treatments were serial diluted with the above formulation solvent to provide 1.85, 0.926, 0.462 and 0.231 milligrams per milliliter (mg/mL) of test compound delivered in 2.7 mL/pot (roughly equivalent to 4.0, 2.0, 1.0, and 0.5 kg/ha, respectively). Formulated compounds were applied using a DeVilbiss® compressed air sprayer at 2-4 pounds per square inch (psi). Following treatment, pots were returned to the greenhouse for the duration of the experiment. All pots were sub-irrigated as needed to provide optimum growing conditions. All pots were fertilized one time per week by subirrigating with Peters Peat-Lite Special® fertilizer (20-10-20). Phytotoxicity ratings were obtained 10 days after treatment postemergence applications. All evaluations were made visually on a scale of 0 to 100 where 0 represents no activity and 100 represents complete plant death and are presented as indicated in Table 4.
# [2] = tested on: Wheat and Barley and weed species; assay: Post-Emergent Test III: postemergent herbicidal activity in wheat and barley, visual rating after 21 d and probit GR20/GR50/GR80/GR90 (Tables 9-13); assay type: in vivo; details: for pest or weed control at 35 g/ha / pest or weed control at 70 g/ha / pest or weed control at 140 g/ha: post-emergence, 504 h
# Summary of the method: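 Greenhouse plants (~18/17 °C, 14 h photoperiod) at second–third true leaf stage sprayed at 187 L/ha with a high rate and ½× to 1/16× serial dilutions. Visual injury 0–100% versus solvent-blank controls scored at 21 d; GR20, GR50, GR80 and GR90 derived by probit analysis across rates.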
# [3] = giant foxtail (Setaria faberi), 4 kg ai/ha, read-out: Visual Growth Reduction (%) 10 Days After Application SETFA
# [4] = ivyleaf morningglory (Ipomoea hederecea), 4 kg ai/ha, read-out: Visual Growth Reduction (%) 10 Days After Application IPOHE
# [5] = sunflower (Helianthus annuus), 4 kg ai/ha, read-out: Visual Growth Reduction (%) 10 Days After Application HELAN
# [6] = wild oats (Avena fatua), 4 kg ai/ha, read-out: Visual Growth Reduction (%) 10 Days After Application AVEFA
# [7] = giant foxtail (Setaria faberi), 3.96 kg ai/ha, read-out: Visual Growth Reduction (%) 10 Days After Application SETFA
# [8] = ivyleaf morningglory (Ipomoea hederecea), 3.96 kg ai/ha, read-out: Visual Growth Reduction (%) 10 Days After Application IPOHE
# [9] = sunflower (Helianthus annuus), 3.96 kg ai/ha, read-out: Visual Growth Reduction (%) 10 Days After Application HELAN
# [10] = wild oats (Avena fatua), 3.96 kg ai/ha, read-out: Visual Growth Reduction (%) 10 Days After Application AVEFA
structure (smiles),measurement,setting,value
"Nc1c(F)c(-c2cccc3c2OCO3)nc(C(=O)O)c1Cl [Compound 72, 4-Amino-6-(benzo[d][1,3]dioxol-4-yl)-3-chloro-5-fluoropicolinic acid]",Visual Growth Reduction (%) 10 Days After Application ECHCG,[1]; 4 kg ai/ha,G (0-29)
same,pest or weed control at 4000 g/ha,[1]; [3],0 to 29%
same,pest or weed control at 4000 g/ha,[1]; [4],0 to 29%
same,pest or weed control at 4000 g/ha,[1]; [5],95 to 100%
same,pest or weed control at 4000 g/ha,[1]; [6],0 to 29%
"COC(=O)c1nc(-c2cccc3c2OCO3)c(F)c(N)c1Cl [Compound 71, Methyl 4-amino-6-(benzo[d][1,3]dioxol-4-yl)-3-chloro-5-fluoropicolinate]",Visual Growth Reduction (%) 10 Days After Application ECHCG,[1]; 4 kg ai/ha,G (0-29)
same,pest or weed control at 4000 g/ha,[1]; [3],0 to 29%
same,pest or weed control at 4000 g/ha,[1]; [4],75 to 84%
same,pest or weed control at 4000 g/ha,[1]; [5],95 to 100%
same,pest or weed control at 4000 g/ha,[1]; [6],0 to 29%
Nc1c(Cl)c(C(=O)O)nc(-c2cc3c(cc2F)OC(F)(F)O3)c1Cl [Compound 3],Visual Growth Reduction (%) 10 Days After Application ECHCG,[1]; 4 kg ai/ha,C (75-84)
same,pest or weed control at 4000 g/ha,[1]; [3],75 to 84%
same,pest or weed control at 4000 g/ha,[1]; [4],75 to 84%
same,pest or weed control at 4000 g/ha,[1]; [5],75 to 84%
same,pest or weed control at 4000 g/ha,[1]; [6],75 to 84%
Nc1c(Cl)c(C(=O)O)nc(-c2ccc3c(c2F)OC(F)(F)O3)c1Cl [Compound 5],Visual Growth Reduction (%) 10 Days After Application ECHCG,[1]; 4 kg ai/ha,G (0-29)
same,pest or weed control at 4000 g/ha,[1]; [3],75 to 84%
same,pest or weed control at 4000 g/ha,[1]; [4],95 to 100%
same,pest or weed control at 4000 g/ha,[1]; [5],95 to 100%
same,pest or weed control at 4000 g/ha,[1]; [6],0 to 29%
COC(=O)c1nc(-c2cccc3c2OC(F)(F)O3)c(F)c(N)c1Cl [Compound 73],Visual Growth Reduction (%) 10 Days After Application ECHCG,[1]; 3.96 kg ai/ha,G (0-29)
same,pest or weed control at 3960 g/ha,[1]; [7],0 to 29%
same,pest or weed control at 3960 g/ha,[1]; [8],75 to 84%
same,pest or weed control at 3960 g/ha,[1]; [9],95 to 100%
same,pest or weed control at 3960 g/ha,[1]; [10],0 to 29%
Nc1c(F)c(-c2cccc3c2OC(F)(F)O3)nc(C(=O)O)c1Cl [Compound 74],pest or weed control at 3960 g/ha,[1]; [7],0 to 29%
same,pest or weed control at 3960 g/ha,[1]; [8],60 to 74%
same,pest or weed control at 3960 g/ha,[1]; [9],95 to 100%
same,pest or weed control at 3960 g/ha,[1]; [10],0 to 29%
COC(=O)c1nc(-c2c(F)cc3c(c2F)OC(F)(F)O3)cc(N)c1Cl [Compound 46],GR50 ALOMY,"[2]; ALOMY black-grass (Alopecurus myosuroides), growth reduction of 50%, probit analysis",18 g ai/ha
same,GR80 ALOMY,"[2]; ALOMY black-grass (Alopecurus myosuroides), growth reduction of 80%, probit analysis",35 g ai/ha
same,GR90 ALOMY,"[2]; ALOMY black-grass (Alopecurus myosuroides), growth reduction of 90%, probit analysis",49 g ai/ha
same,GR50 APESV,"[2]; APESV bentgrass (Apera spica-venti), growth reduction of 50%, probit analysis",88 g ai/ha
same,GR80 APESV,"[2]; APESV bentgrass (Apera spica-venti), growth reduction of 80%, probit analysis",>140 g ai/ha
same,GR90 APESV,"[2]; APESV bentgrass (Apera spica-venti), growth reduction of 90%, probit analysis",>140 g ai/ha
same,GR20 HORVS,"[2]; HORVS barley, spring (crop), growth reduction of 20%, probit analysis",8 g ai/ha
same,pest or weed control at 35 g/ha,"[2]; Hordeum vulgare, HORVS barley, spring (crop), 35 g ai/ha, read-out: Visual Growth Reduction (%) 21 Days After Application HORVS",45 to 59%
same,pest or weed control at 70 g/ha,"[2]; Hordeum vulgare, HORVS barley, spring (crop), 70 g ai/ha, read-out: Visual Growth Reduction (%) 21 Days After Application HORVS",60 to 74%
same,pest or weed control at 140 g/ha,"[2]; Hordeum vulgare, HORVS barley, spring (crop), 140 g ai/ha, read-out: Visual Growth Reduction (%) 21 Days After Application HORVS",85 to 94%
same,Visual Growth Reduction (%) 21 Days After Application KCHSC,"[2]; KCHSC kochia (Kochia scoparia), 35 g ai/ha",B (85-94)
same,Visual Growth Reduction (%) 21 Days After Application KCHSC,"[2]; KCHSC kochia (Kochia scoparia), 70 g ai/ha",A (95-100)
same,Visual Growth Reduction (%) 21 Days After Application KCHSC,"[2]; KCHSC kochia (Kochia scoparia), 140 g ai/ha",A (95-100)
same,GR50 KCHSC,"[2]; KCHSC kochia (Kochia scoparia), growth reduction of 50%, probit analysis",1 g ai/ha
same,GR80 KCHSC,"[2]; KCHSC kochia (Kochia scoparia), growth reduction of 80%, probit analysis",7 g ai/ha
same,GR90 KCHSC,"[2]; KCHSC kochia (Kochia scoparia), growth reduction of 90%, probit analysis",17 g ai/ha
same,GR50 LOLSS,"[2]; LOLSS ryegrass, growth reduction of 50%, probit analysis",91 g ai/ha
same,GR80 LOLSS,"[2]; LOLSS ryegrass, growth reduction of 80%, probit analysis",>140 g ai/ha
same,GR90 LOLSS,"[2]; LOLSS ryegrass, growth reduction of 90%, probit analysis",>140 g ai/ha
same,GR50 SETVI,"[2]; SETVI green foxtail (Setaria viridis), growth reduction of 50%, probit analysis",106 g ai/ha
same,GR80 SETVI,"[2]; SETVI green foxtail (Setaria viridis), growth reduction of 80%, probit analysis",>140 g ai/ha
same,GR90 SETVI,"[2]; SETVI green foxtail (Setaria viridis), growth reduction of 90%, probit analysis",>140 g ai/ha
same,GR20 TRZAS,"[2]; TRZAS wheat, spring (crop), growth reduction of 20%, probit analysis",10 g ai/ha
same,pest or weed control at 35 g/ha,"[2]; Triticum aestivum, TRZAS wheat, spring (crop), 35 g ai/ha, read-out: Visual Growth Reduction (%) 21 Days After Application TRZAS",60 to 74%
same,pest or weed control at 70 g/ha,"[2]; Triticum aestivum, TRZAS wheat, spring (crop), 70 g ai/ha, read-out: Visual Growth Reduction (%) 21 Days After Application TRZAS",75 to 84%
same,pest or weed control at 140 g/ha,"[2]; Triticum aestivum, TRZAS wheat, spring (crop), 140 g ai/ha, read-out: Visual Growth Reduction (%) 21 Days After Application TRZAS",85 to 94%
same,pest or weed control at 35 g/ha,"[2]; ALOMY black-grass (Alopecurus myosuroides), 35 g ai/ha, read-out: Visual Growth Reduction (%) 21 Days After Application ALOMY",60 to 74%
same,pest or weed control at 70 g/ha,"[2]; ALOMY black-grass (Alopecurus myosuroides), 70 g ai/ha, read-out: Visual Growth Reduction (%) 21 Days After Application ALOMY",95 to 100%
same,pest or weed control at 140 g/ha,"[2]; ALOMY black-grass (Alopecurus myosuroides), 140 g ai/ha, read-out: Visual Growth Reduction (%) 21 Days After Application ALOMY",95 to 100%
same,pest or weed control at 35 g/ha,"[2]; APESV bentgrass (Apera spica-venti), 35 g ai/ha, read-out: Visual Growth Reduction (%) 21 Days After Application APESV",0 to 29%
same,pest or weed control at 70 g/ha,"[2]; APESV bentgrass (Apera spica-venti), 70 g ai/ha, read-out: Visual Growth Reduction (%) 21 Days After Application APESV",45 to 59%
same,pest or weed control at 140 g/ha,"[2]; APESV bentgrass (Apera spica-venti), 140 g ai/ha, read-out: Visual Growth Reduction (%) 21 Days After Application APESV",60 to 74%
same,pest or weed control at 35 g/ha,"[2]; LOLSS ryegrass, 35 g ai/ha, read-out: Visual Growth Reduction (%) 21 Days After Application LOLSS",0 to 29%
same,pest or weed control at 70 g/ha,"[2]; LOLSS ryegrass, 70 g ai/ha, read-out: Visual Growth Reduction (%) 21 Days After Application LOLSS",45 to 59%
same,pest or weed control at 140 g/ha,"[2]; LOLSS ryegrass, 140 g ai/ha, read-out: Visual Growth Reduction (%) 21 Days After Application LOLSS",60 to 74%
same,pest or weed control at 35 g/ha,"[2]; SETVI green foxtail (Setaria viridis), 35 g ai/ha, read-out: Visual Growth Reduction (%) 21 Days After Application SETVI",0 to 29%
same,pest or weed control at 70 g/ha,"[2]; SETVI green foxtail (Setaria viridis), 70 g ai/ha, read-out: Visual Growth Reduction (%) 21 Days After Application SETVI",30 to 44%
same,pest or weed control at 140 g/ha,"[2]; SETVI green foxtail (Setaria viridis), 140 g ai/ha, read-out: Visual Growth Reduction (%) 21 Days After Application SETVI",60 to 74%
